Data: patent publication US20140349955A1, “USE OF FLUORINE-CONTAINING WATER SOLUBLE PLATINUM COMPLEX IN PREPARING DRUGS FOR PREVENTION AND TREATMENT OF CANCERS” (GUDUI BIOPHARMA TECHNOLOGY INC., priority 2011, published 2014)

Columns and labels:
[1] = system: L1210 tumor cells; assay: Antitumor efficacy in L1210 tumor-bearing CDF1 mice (increase in life span); format: in vivo
Experimental: In the following test, antitumor efficacy studies were performed using 8-9 weeks old female CDF1 mice, the average weight of the animal is 20-25 grams. L1210 tumor cells (about 10^5 cells per mouse) were inoculated intraperitoneally. The fluorine-containing water-soluble platinum complexes were used to treat the tumor-bearing animals and the efficacy was compared compared with the clinical platinum antitumor drugs. […] Drugs were administered intraperitoneally on day 1 and day 4 after tumor cell transplantation. The number of experimental animals in each group was 6.
The experimental animals were purchased from Vital River Laboratory Animal Technology Co. Ltd., Tumor cells L1210-leukemia cells were purchased from Shanghai An Yan Commercial Trade Co. Ltd.
The increase in life span (ILS) is calculated as follows:
Wherein, St=the weighted median survival time of treated animals; Su=the weighted median survival time of untreated animals

[2] = cited from earlier work
[3] = 24 mg/Kg i.p. on day 1 and day 4
[4] = 40 mg/Kg i.p. on day 1 and day 4
[5] = 80 mg/Kg i.p. on day 1 and day 4

With `N.N.O=C([O-])C1(C(=O)[O-])CCC1.[Pt+2]` [Carboplatin] the “ILS (%)” value [1, 3] was 10%, the “Survived Animals on Day 42” value [1, 3] was 0/6 and the “Weight Changes (g)” value ([1]; 24 mg/Kg i.p. on day 1 and day 4, weight changes from the first day to the seventh day) was “+0 g”. The “ILS (%)” value [1, 4] was 24%, the “Survived Animals on Day 42” value [1, 4] was 0/6 and the “Weight Changes” value ([1]; 40 mg/Kg i.p. on day 1 and day 4, weight changes from the first day to the seventh day) was -0.3 g. The “ILS (%)” value [1, 5] was 55%, the “Survived Animals on Day 42” value [1, 5] was 1/6 and the “Weight Changes” value ([1]; 80 mg/Kg i.p. on day 1 and day 4, weight changes from the first day to the seventh day) was -1.2 g. For the same compound, the water solubility [2] was 17 mg/mL.
